From ChEMBL document CHEMBL3414561, “Discovery of 4'-chloromethyl-2'-deoxy-3',5'-di-O-isobutyryl-2'-fluorocytidine (ALS-8176), a first-in-class RSV polymerase inhibitor for treatment of human respiratory syncytial virus infection” (J Med Chem, 2015)
Values belong to the compound of their own block, whether it stands above or below them. The source made the active and inactive calls. The calls are words filed in the database; no cut-off is given here.

Legend:
Homo sapiens [1] = species: Homo sapiens; assay: Inhibition of human DNA-dependent DNA polymerase gamma using calf thymus DNA/[3H]dTTP as substrate by microplate scintillation reader; settings: concentration not given here
[2] = target: DNA-directed RNA polymerase, mitochondrial (Homo sapiens) (UniProt O00411); assay: Inhibition of human mitochondrial RNA polymerase assessed as 13-mer product using [33P]RNA/DNA primer/templates used by […] gel electrophoresis
DNA-directed RNA polymerase, mitochondrial (Homo sapiens), sequence (O00411 whole entry): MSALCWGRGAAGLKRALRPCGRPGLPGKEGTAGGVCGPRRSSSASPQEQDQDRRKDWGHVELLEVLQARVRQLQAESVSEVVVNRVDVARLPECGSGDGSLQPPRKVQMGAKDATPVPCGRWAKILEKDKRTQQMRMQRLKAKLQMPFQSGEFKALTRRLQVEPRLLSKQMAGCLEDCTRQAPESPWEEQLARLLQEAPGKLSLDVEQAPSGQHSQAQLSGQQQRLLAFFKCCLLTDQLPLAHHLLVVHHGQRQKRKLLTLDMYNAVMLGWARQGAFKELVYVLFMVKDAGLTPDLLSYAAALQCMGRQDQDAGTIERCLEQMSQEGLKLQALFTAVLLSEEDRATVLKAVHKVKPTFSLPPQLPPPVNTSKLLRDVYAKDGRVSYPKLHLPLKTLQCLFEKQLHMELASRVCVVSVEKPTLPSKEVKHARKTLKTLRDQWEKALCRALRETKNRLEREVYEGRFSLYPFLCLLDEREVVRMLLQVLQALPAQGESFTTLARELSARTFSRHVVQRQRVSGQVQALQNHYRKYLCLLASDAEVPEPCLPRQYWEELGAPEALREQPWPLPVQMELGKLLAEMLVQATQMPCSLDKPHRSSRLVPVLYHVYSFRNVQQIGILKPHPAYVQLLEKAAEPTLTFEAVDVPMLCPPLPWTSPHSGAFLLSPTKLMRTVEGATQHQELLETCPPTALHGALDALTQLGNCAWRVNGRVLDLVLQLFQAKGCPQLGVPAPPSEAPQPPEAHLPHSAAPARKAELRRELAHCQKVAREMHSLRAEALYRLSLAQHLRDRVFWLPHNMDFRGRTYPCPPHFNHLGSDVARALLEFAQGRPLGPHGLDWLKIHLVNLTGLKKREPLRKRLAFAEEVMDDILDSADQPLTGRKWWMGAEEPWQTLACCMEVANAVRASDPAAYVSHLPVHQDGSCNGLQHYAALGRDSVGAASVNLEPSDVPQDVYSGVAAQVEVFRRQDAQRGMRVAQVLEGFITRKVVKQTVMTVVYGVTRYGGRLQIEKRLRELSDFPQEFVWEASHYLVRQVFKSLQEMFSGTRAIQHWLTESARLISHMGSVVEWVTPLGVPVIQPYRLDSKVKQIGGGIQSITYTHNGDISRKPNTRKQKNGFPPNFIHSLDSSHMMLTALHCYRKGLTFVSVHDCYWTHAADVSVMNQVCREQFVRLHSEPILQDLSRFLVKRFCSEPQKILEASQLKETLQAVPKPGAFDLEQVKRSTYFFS

Homo sapiens [3] = species: Homo sapiens; assay: Inhibition of human DNA-dependent DNA polymerase alpha using calf thymus DNA/[3H]dTTP as substrate by microplate scintillation reader; settings: concentration not given here
[4] = Inhibition of Respiratory syncytial virus RNA polymerase in crude RSV RNP complex assessed as inhibition of [33P]CMP incorporation into RNA chain
Homo sapiens [5] = species: Homo sapiens; assay: Inhibition of human DNA-directed RNA polymerase 2 using cytomegalovirus DNA fragment as substrate; settings: concentration not given here
[6] = target: DNA polymerase beta (Homo sapiens) (UniProt P06746); assay: Inhibition of human DNA-dependent DNA polymerase beta using calf thymus DNA/[3H]dTTP as substrate by microplate scintillation reader; settings: concentration not given here
[7] = target: DNA-directed RNA polymerase, mitochondrial (Homo sapiens) (UniProt O00411); assay: Binding affinity to human mitochondrial RNA polymerase assessed as compound incorporation using [33P]RNA/DNA primer/templates used by […] gel electrophoresis
[8] = AUCinf in Non-naive cynomolgus monkey at 5 mg/kg, iv; format: ADME, organism-based, Macaca fascicularis; set-up: time infinity, dose 5 mg/kg, route intravenous; settings: plasma
[9] = Volume of distribution at steady state in Non-naive cynomolgus monkey at 5 mg/kg, iv; format: ADME, organism-based, Macaca fascicularis; set-up: dose 5 mg/kg, route intravenous; settings: in vivo, read-out: Vdss
[10] = Cytotoxicity against human HeLa cells assessed as cell viability by CellTiter-Glo luminescent assay; format: cell-based
[11] = Volume of distribution at steady state in Sprague-Dawley rat at 5 mg/kg, iv; format: ADME, organism-based; set-up: dose 5 mg/kg, route intravenous; settings: in vivo, read-out: Vdss
[12] = system: Respiratory syncytial virus; assay: Antiviral activity against Respiratory syncytial virus subgenomic replicon system in 395 HeLa cells assessed as reduction in viral replication after 7 days by renilla luciferase assay; format: functional, organism-based; settings: human respiratory syncytial virus, 168 h
[13] = Drug metabolism in human normal bronchial epithelial cells assessed as nucleotide 5'-triphosphate level measured per million cells at 50 uM after 1 to 5 days by LC/MS/MS analysis; format: ADME, cell-based; settings: epithelial cell
[14] = Half life in Sprague-Dawley rat at 5 mg/kg, iv; format: ADME, organism-based; set-up: dose 5 mg/kg, route intravenous; settings: in vivo
Cynomolgus monkey = assay: Ratio of uridine metabolite to parent cytidine in Non-naive cynomolgus monkey at 5 mg/kg, iv; format: ADME, organism-based, Macaca fascicularis; set-up: dose 5 mg/kg, route intravenous; settings: in vivo
[15] = Half life in Non-naive cynomolgus monkey at 5 mg/kg, iv; format: ADME, organism-based, Macaca fascicularis; set-up: dose 5 mg/kg, route intravenous; settings: in vivo
[16] = Drug uptake in Non-naive cynomolgus monkey assessed as lung NTP level at 5 mg/kg, iv after 1 hr; format: ADME, organism-based, Macaca fascicularis; set-up: dose 5 mg/kg, route intravenous; settings: in vivo, read-out: Drug uptake
[17] = Clearance in Non-naive cynomolgus monkey at 5 mg/kg, iv; format: ADME, organism-based, Macaca fascicularis; set-up: dose 5 mg/kg, route intravenous; settings: in vivo
[18] = Drug metabolism in human Hep2 cells assessed as nucleotide 5'-triphosphate level measured per million cells at 50 uM after 1 to 5 days by LC/MS/MS analysis; format: ADME, cell-based; settings: hep-2, 50 µM
A549 = assay: Drug metabolism in human A549 cells assessed as nucleotide 5'-triphosphate level measured per million cells at 50 uM after 1 to 5 days by LC/MS/MS analysis; format: ADME, cell-based; settings: a549, 50 µM
[19] = AUCinf in Sprague-Dawley rat at 5 mg/kg, iv; format: ADME, organism-based; set-up: time infinity, dose 5 mg/kg, route intravenous; settings: plasma
[20] = Drug metabolism in human nasal cells assessed as nucleotide 5'-triphosphate level measured per million cells at 50 uM after 1 to 5 days by LC/MS/MS analysis; format: ADME, cell-based
[21] = Clearance in Sprague-Dawley rat at 5 mg/kg, iv; format: ADME, organism-based; set-up: dose 5 mg/kg, route intravenous; settings: in vivo
[22] = Drug uptake in Non-naive cynomolgus monkey assessed as lung NMP level at 5 mg/kg, iv after 1 hr; format: ADME, organism-based, Macaca fascicularis; set-up: dose 5 mg/kg, route intravenous; settings: in vivo, read-out: Drug uptake
[23] = Drug uptake in male syrian golden hamster assessed as lung NTP level at 5 mg/kg, iv after 1 hr; format: ADME, organism-based, Mesocricetus auratus; set-up: dose 5 mg/kg, route intravenous; settings: in vivo, read-out: Drug uptake
[24] = AUCinf in male syrian golden hamster at 5 mg/kg, iv; format: ADME, organism-based, Mesocricetus auratus; set-up: time infinity, dose 5 mg/kg, route intravenous; settings: plasma
[25] = Clearance in male syrian golden hamster at 5 mg/kg, iv; format: ADME, organism-based, Mesocricetus auratus; set-up: dose 5 mg/kg, route intravenous; settings: in vivo
[26] = Drug uptake in Non-naive cynomolgus monkey assessed as lung NTP level at 5 mg/kg, po 4'-chloromethyl-2'-deoxy-2'-fluorocytidine equivalent dose after 12 hrs; format: ADME, organism-based, Macaca fascicularis; set-up: dose 5 mg/kg, route oral; settings: in vivo, read-out: Drug uptake
[27] = Volume of distribution at steady state in male syrian golden hamster at 5 mg/kg, iv; format: ADME, organism-based, Mesocricetus auratus; set-up: dose 5 mg/kg, route intravenous; settings: in vivo, read-out: Vdss
Syrian golden hamster = assay: Ratio of uridine metabolite to parent cytidine in male syrian golden hamster at 5 mg/kg, iv; format: ADME, organism-based, Mesocricetus auratus; set-up: dose 5 mg/kg, route intravenous; settings: in vivo
[28] = Half life in male syrian golden hamster at 5 mg/kg, iv; format: ADME, organism-based, Mesocricetus auratus; set-up: dose 5 mg/kg, route intravenous; settings: in vivo
[29] = Drug uptake in Non-naive cynomolgus monkey assessed as lung NMP level at 5 mg/kg, po 4'-chloromethyl-2'-deoxy-2'-fluorocytidine equivalent dose after 12 hrs; format: ADME, organism-based, Macaca fascicularis; set-up: dose 5 mg/kg, route oral; settings: in vivo, read-out: Drug uptake
[30] = Drug uptake in male syrian golden hamster assessed as lung NMP level at 5 mg/kg, iv after 1 hr; format: ADME, organism-based, Mesocricetus auratus; set-up: dose 5 mg/kg, route intravenous; settings: in vivo, read-out: Drug uptake

inhibition (Homo sapiens [1]): < 50%
inhibition [2]: Active
inhibition (Homo sapiens [3]): < 50%
IC50 [4]: 120 nM
inhibition (Homo sapiens [5]): < 50%
inhibition [6]: < 50%
Activity [7]: Active
Structure (SMILES): Nc1ccn([C@@H]2O[C@](CF)(COP(=O)(O)OP(=O)(O)OP(=O)(O)O)[C@@H](O)[C@H]2F)c(=O)n1

AUC(0-inf) [8]: 1540 ng·h/mL
Vd [9]: 5.6 L/kg
Vd [11]: 1.87 L/kg
EC50 [12]: 160 nM
Drug metabolism [13]: 153 pmol
half-life [14]: 9.49 h
Ratio (Cynomolgus monkey): 3.39
half-life [15]: 7.66 h
concentration [16]: 374 nM
clearance [17]: 54.3 mL/min/kg
Drug metabolism [18]: 27.9 pmol
Drug metabolism (A549): 55 pmol
AUC(0-inf) [19]: 31800 ng·h/mL
Drug metabolism [20]: 240 pmol
clearance [21]: 2.69 mL/min/kg
concentration [22]: 5580 nM
Structure (SMILES): Nc1ccn([C@@H]2O[C@@](CO)(CF)[C@@H](O)[C@H]2F)c(=O)n1
CC50 [10]: > 100000 nM

IC50 [4]: 90 nM
Structure (SMILES): C=CC[C@]1(COP(=O)(O)OP(=O)(O)OP(=O)(O)O)O[C@@H](n2ccc(N)nc2=O)[C@H](F)[C@@H]1O

inhibition (Homo sapiens [1]): < 50%
inhibition [2]: inactive
inhibition (Homo sapiens [3]): < 50%
IC50 [4]: 20 nM
inhibition (Homo sapiens [5]): < 50%
inhibition [6]: < 50%
Structure (SMILES): Nc1ccn([C@@H]2O[C@](CCl)(COP(=O)(O)OP(=O)(O)OP(=O)(O)O)[C@@H](O)[C@H]2F)c(=O)n1

Structure (SMILES): [N-]=[N+]=N[C@]1(COP(=O)(O)OP(=O)(O)OP(=O)(O)O)O[C@@H](n2ccc(N)nc2=O)[C@H](F)[C@@H]1O
inhibition [2]: Active
IC50 [4]: 100 nM
Activity [7]: Active

Structure (SMILES): Nc1ccn([C@@H]2O[C@H](COP(=O)(O)OP(=O)(O)OP(=O)(O)O)[C@@H](O)C2(F)F)c(=O)n1
inhibition [2]: Active
Activity [7]: Active

AUC(0-inf) [8]: 2980 ng·h/mL
Vd [9]: 3 L/kg
concentration [23]: 70.9 nM
Vd [11]: 4.1 L/kg
EC50 [12]: 150 nM
AUC(0-inf) [24]: 3230 ng·h/mL
clearance [25]: 28.6 mL/min/kg
Drug metabolism [13]: 581 pmol
concentration [26]: 185 nM
half-life [14]: 6.01 h
Vd [27]: 2.3 L/kg
Ratio (Cynomolgus monkey): 0.48
Ratio (Syrian golden hamster): 0.025
half-life [15]: 5.44 h
concentration [16]: 4060 nM
clearance [17]: 28 mL/min/kg
Drug metabolism [18]: 94.7 pmol
Drug metabolism (A549): 137 pmol
AUC(0-inf) [19]: 2670 ng·h/mL
half-life [28]: 3.98 h
Drug metabolism [20]: 185 pmol
concentration [29]: 254 nM
clearance [21]: 31.8 mL/min/kg
concentration [30]: 287 nM
concentration [22]: 9920 nM
Structure (SMILES): Nc1ccn([C@@H]2O[C@@](CO)(CCl)[C@@H](O)[C@H]2F)c(=O)n1 [ALS-8112]
CC50 [10]: > 100000 nM

IC50 [4]: 4900 nM
Structure (SMILES): Nc1ccn([C@@H]2O[C@](CCl)(COP(=O)(O)OP(=O)(O)OP(=O)(O)O)[C@@H](O)[C@@H]2F)c(=O)n1

IC50 [4]: 10 nM
Structure (SMILES): C[C@]1(COP(=O)(O)OP(=O)(O)OP(=O)(O)O)O[C@@H](n2ccc(N)nc2=O)[C@H](F)[C@@H]1O

EC50 [12]: 260 nM
concentration [26]: 1480 nM
concentration [29]: 679 nM
Structure (SMILES): CC(C)C(=O)OC[C@@]1(CCl)O[C@@H](n2ccc(N)nc2=O)[C@H](F)[C@@H]1OC(=O)C(C)C [LUMICITABINE]
CC50 [10]: > 100000 nM

inhibition [2]: Active
Activity [7]: Active
Structure (SMILES): Nc1ccn([C@@H]2O[C@H](COP(=O)(O)OP(=O)(O)OP(=O)(O)O)[C@@H](O)[C@H]2F)c(=O)n1

IC50 [4]: 150 nM
Structure (SMILES): Nc1ccn([C@@H]2O[C@](CBr)(COP(=O)(O)OP(=O)(O)OP(=O)(O)O)[C@@H](O)[C@H]2F)c(=O)n1

IC50 [4]: 200 nM
Structure (SMILES): [N-]=[N+]=N[C@]1(COP(=O)(O)OP(=O)(O)OP(=O)(O)O)O[C@@H](n2ccc(N)nc2=O)[C@@H](O)[C@@H]1O
